Experimental data from BindingDB's records for doi:10.1016/j.bmcl.2003.08.078 (University of Florida, 2003).

Biological target: Melanocortin receptor 4 (Mus musculus, UniProt P56450)
Assay: ChEBML_104255
Text: Agonistic activity evaluated at melanocortin 4 receptor (MC4R) of mouse HEK293 cells

Melanocortin receptor 4, sequence (P56450 whole entry): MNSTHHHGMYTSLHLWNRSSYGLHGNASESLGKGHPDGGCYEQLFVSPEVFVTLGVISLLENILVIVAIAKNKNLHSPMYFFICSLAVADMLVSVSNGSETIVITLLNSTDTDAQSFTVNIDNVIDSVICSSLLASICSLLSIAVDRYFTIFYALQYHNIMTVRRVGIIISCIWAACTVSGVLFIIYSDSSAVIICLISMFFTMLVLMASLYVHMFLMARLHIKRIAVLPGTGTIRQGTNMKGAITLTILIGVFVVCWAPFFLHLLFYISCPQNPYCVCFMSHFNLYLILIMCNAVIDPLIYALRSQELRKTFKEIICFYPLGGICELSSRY

- EC50: 17 nM
SMILES: CC(=O)N[C@@H](Cc1cnc[nH]1)C(=O)N[C@H](Cc1ccccc1)C(=O)N[C@@H](CCCN=C(N)N)C(=O)N[C@@H](Cc1c[nH]c2ccccc12)C(N)=O [(S)-2-{(R)-2-[(S)-2-Acetylamino-3-(1H-imidazol-4-yl)-propionylamino]-3-phenyl-propionylamino}-5-guanidino-pentanoic acid [(S)-1-carbamoyl-2-(1H-indol-3-yl)-ethyl]-amide]
